Assay results taken from ChEMBL document CHEMBL5370619, “Targeting the Tyrosine Kinase 2 (TYK2) Pseudokinase Domain: Discovery of the Selective TYK2 Inhibitor ABBV-712” (J Med Chem, 2023).
pEC50, pIC50: −log10 of the molar value. Converted amounts (≈) assume the structure as drawn.

Assays:
[1] = biological target: T1, Non-receptor tyrosine-protein kinase TYK2 (Homo sapiens, UniProt P29597); test: Inhibition of recombinant human N-terminal His-tagged TYK2 JH2 domain (577 to 870 residues) expressed in Sf9 cells using N-(2-(2-(2-((3-(5-acetamido-3-(3-(N,N-dimethylsulfamoyl)phenyl)-1H-pyrrolo[2,3-c]pyridin-1-yl)propyl)amino)-2-oxoethoxy)ethoxy)ethyl)-2',7'-difluoro-3',6'-dihydroxy-3-oxo-3H-spiro[isobenzofuran-1,9'-xanthene]-5-carboxamide trifluoroacetate as substrate incubated for 60 mins by TR-FRET assay
T1 sequence (P29597 whole entry, the tested form may be a part): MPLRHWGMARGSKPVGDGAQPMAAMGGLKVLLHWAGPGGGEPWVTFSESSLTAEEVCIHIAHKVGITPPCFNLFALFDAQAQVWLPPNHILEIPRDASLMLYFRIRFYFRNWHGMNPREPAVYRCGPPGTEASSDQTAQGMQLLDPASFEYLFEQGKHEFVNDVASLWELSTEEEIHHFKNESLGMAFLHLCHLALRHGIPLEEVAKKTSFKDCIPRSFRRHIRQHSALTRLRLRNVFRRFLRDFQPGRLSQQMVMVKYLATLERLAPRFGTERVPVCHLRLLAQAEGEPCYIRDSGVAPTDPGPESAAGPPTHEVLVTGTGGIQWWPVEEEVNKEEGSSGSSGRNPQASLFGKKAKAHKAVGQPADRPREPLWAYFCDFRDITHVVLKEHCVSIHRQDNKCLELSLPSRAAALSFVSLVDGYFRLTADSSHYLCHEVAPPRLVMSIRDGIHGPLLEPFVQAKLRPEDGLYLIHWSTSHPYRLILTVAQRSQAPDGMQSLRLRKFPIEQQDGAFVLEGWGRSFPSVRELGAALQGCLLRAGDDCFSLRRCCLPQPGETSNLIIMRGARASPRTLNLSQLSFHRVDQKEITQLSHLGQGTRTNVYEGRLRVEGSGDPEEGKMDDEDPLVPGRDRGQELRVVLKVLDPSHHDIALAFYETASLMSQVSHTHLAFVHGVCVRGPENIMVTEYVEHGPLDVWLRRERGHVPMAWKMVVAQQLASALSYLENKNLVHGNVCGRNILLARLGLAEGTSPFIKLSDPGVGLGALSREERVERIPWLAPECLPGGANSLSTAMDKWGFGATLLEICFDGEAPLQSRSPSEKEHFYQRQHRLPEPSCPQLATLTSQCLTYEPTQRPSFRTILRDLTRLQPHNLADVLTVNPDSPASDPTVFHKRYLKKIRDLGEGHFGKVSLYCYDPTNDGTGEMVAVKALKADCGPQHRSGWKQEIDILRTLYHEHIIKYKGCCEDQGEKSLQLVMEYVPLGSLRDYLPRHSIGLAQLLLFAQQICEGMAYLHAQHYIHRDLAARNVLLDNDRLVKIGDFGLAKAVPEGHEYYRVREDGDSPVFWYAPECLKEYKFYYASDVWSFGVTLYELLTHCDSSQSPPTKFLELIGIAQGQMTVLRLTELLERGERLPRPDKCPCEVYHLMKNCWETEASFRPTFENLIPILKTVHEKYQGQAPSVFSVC

[2] = biological target: T1, Non-receptor tyrosine-protein kinase TYK2; test: Inhibition of TYK2 in human T-blast cells assessed as IL-12 induced STAT4 phosphorylation at Tyr694 residue preincubated for 30 mins followed by IL-12 stimulation and measured after 20 mins by AlphaScreen assay; assay type: cell-based, T-blast cell
[3] = Metabolic stability in human hepatocytes assessed as intrinsic clearance for unbound fraction of drug; assay type: ADME, cell-based, Hepatocyte
[4] = Thermodynamic solubility in PBS at pH 7.4; assay type: physicochemical; details: read-out: Therm_solubility
[5] = biological target: T2, Tyrosine-protein kinase JAK1 (Homo sapiens, UniProt P23458); test: Inhibition of JAK1 in human TF-1 cells assessed as reduction in IL-6 induced STAT3 phosphorylation at Tyr705 residue preincubated for 30 mins followed by IL-6 stimulation and measured after 30 mins by AlphaScreen assay; assay type: cell-based
T2 sequence (P23458 whole entry, the tested form may be a part): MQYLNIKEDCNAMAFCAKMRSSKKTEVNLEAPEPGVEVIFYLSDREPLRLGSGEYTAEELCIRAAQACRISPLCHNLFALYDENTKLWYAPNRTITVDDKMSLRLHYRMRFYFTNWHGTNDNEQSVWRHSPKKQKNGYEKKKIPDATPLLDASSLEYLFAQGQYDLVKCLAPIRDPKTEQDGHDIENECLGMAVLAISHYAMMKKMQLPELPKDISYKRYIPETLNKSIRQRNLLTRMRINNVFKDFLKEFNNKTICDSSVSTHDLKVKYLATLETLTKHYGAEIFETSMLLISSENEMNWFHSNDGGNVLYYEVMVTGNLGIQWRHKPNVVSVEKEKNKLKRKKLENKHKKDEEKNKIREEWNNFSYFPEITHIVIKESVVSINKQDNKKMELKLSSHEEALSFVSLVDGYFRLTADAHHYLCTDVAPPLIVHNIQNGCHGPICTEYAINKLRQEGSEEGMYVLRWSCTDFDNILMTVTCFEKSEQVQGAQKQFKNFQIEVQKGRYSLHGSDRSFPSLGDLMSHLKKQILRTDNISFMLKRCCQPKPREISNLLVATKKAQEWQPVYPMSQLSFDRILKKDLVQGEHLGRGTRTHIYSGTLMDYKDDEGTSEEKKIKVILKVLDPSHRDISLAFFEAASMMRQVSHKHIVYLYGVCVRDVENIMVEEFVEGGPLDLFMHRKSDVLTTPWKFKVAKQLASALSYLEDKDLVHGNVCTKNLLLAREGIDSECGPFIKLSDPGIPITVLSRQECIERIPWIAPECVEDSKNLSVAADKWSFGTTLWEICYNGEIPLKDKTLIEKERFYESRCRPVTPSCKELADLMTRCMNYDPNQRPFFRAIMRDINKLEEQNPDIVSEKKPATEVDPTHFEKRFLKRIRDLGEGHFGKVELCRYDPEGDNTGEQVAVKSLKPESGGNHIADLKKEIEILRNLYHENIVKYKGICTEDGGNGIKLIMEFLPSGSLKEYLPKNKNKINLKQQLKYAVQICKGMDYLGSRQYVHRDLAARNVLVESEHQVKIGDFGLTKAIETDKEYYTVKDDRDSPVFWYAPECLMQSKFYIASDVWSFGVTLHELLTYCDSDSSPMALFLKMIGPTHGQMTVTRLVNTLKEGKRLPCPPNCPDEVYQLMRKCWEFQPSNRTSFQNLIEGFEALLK

[6] = biological target: T1, Non-receptor tyrosine-protein kinase TYK2; test: Inhibition of TYK2 JH1 domain (unknown origin) by TR-FRET assay
[7] = biological target: T2, Tyrosine-protein kinase JAK1; test: Inhibition of JAK1 JH1 domain (unknown origin) by TR-FRET assay
[8] = Selectivity ratio of IC50 for inhibition of TYK2 JH1 domain (unknown origin) to IC50 for inhibition of recombinant human N-terminal His-tagged TYK2 JH2 domain (577 to 870 residues) expressed in Sf9 cells
[9] = Selectivity ratio of IC50 for inhibition of JAK1 JH1 domain (unknown origin) to IC50 for inhibition of recombinant human N-terminal His-tagged TYK2 JH2 domain (577 to 870 residues) expressed in Sf9 cells
[10] = biological target: Tyrosine-protein kinase JAK2 (Homo sapiens, UniProt O60674); test: Inhibition of JAK2 in human UT7 cells assessed as reduction in erythropoietin induced STAT5 phosphorylation preincubated for 30 mins followed by erythropoietin stimulation and measured after 20 mins by AlphaScreen assay; assay type: cell-based
Tyrosine-protein kinase JAK2, sequence (O60674 whole entry): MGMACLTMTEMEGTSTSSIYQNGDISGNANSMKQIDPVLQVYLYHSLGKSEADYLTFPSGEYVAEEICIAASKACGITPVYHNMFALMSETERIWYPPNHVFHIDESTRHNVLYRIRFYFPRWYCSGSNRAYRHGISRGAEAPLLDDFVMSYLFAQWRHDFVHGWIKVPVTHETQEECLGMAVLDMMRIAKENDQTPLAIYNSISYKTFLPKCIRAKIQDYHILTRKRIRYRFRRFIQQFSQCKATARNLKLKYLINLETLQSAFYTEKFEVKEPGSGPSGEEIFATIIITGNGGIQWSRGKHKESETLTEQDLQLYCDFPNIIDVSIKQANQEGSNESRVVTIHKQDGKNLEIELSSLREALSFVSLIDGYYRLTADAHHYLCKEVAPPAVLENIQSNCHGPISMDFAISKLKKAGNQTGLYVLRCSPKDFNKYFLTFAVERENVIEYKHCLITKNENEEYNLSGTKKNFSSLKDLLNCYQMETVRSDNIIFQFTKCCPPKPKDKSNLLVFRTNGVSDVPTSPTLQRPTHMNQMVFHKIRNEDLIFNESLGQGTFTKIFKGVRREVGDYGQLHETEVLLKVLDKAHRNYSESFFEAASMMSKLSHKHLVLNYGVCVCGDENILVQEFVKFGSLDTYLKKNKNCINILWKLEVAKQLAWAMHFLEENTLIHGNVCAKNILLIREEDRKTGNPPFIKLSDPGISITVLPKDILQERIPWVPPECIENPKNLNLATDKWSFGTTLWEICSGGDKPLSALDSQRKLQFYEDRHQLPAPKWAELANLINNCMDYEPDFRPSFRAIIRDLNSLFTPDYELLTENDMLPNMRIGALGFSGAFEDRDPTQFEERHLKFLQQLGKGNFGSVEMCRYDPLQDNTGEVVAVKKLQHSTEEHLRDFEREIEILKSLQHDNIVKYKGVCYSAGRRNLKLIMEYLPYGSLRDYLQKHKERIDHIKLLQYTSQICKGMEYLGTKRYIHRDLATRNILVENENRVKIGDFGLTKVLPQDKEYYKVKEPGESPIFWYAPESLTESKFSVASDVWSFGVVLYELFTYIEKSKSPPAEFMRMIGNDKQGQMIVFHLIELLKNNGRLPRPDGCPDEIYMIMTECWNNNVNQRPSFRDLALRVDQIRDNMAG

[11] = biological target: T3, Tyrosine-protein kinase JAK3 (Homo sapiens, UniProt P52333); test: Inhibition of JAK3 in human T-blast cells assessed as reduction in IL-2 induced STAT5 phosphorylation preincubated for 30 mins followed by IL-2 stimulation and measured after 20 mins by AlphaScreen assay; assay type: cell-based, T-blast cell
T3 sequence (P52333 whole entry): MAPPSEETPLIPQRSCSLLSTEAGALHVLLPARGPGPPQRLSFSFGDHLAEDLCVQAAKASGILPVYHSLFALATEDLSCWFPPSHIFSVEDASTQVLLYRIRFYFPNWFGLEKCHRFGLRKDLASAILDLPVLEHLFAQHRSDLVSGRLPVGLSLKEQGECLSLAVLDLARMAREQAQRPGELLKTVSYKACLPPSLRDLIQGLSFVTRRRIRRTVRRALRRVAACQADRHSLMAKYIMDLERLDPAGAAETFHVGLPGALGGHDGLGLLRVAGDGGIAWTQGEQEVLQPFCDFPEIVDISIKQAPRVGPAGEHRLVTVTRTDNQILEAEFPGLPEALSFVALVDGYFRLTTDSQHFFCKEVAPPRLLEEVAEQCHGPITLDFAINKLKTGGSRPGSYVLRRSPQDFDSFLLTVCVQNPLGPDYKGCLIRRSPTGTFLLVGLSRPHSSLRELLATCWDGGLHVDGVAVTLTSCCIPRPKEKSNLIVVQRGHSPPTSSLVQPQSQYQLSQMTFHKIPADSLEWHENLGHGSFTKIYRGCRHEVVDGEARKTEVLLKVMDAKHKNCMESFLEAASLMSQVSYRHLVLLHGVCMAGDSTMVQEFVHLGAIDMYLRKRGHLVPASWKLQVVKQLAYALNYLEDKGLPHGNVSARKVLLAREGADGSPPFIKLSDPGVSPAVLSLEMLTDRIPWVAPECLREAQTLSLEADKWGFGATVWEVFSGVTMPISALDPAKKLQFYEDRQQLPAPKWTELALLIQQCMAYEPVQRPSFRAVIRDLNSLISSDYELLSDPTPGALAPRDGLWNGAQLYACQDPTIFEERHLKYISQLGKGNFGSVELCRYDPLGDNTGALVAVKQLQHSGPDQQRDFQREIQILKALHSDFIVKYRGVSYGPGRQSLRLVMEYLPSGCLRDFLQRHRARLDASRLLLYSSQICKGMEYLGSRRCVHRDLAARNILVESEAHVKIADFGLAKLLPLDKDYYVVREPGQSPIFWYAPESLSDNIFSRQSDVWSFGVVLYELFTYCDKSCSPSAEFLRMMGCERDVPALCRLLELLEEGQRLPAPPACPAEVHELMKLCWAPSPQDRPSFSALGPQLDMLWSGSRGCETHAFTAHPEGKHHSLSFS

CYP3A4 [12] = biological target: T4, CYP3A4 (Homo sapiens, UniProt P08684); test: Time dependent inhibition of CYP3A4 in human liver microsomes using midazolam as substrate assessed as 1'-OH midazolam metabolite formation at 50 uM preincubated for 30 mins in presence of NADPH followed by substrate addition and measured after 15 mins by HPLC-MS/MS analysis relative to control; assay type: ADME, Microsome; details: probe midazolam, time 45 min, read-out: TDI
T4 sequence (P08684 whole entry): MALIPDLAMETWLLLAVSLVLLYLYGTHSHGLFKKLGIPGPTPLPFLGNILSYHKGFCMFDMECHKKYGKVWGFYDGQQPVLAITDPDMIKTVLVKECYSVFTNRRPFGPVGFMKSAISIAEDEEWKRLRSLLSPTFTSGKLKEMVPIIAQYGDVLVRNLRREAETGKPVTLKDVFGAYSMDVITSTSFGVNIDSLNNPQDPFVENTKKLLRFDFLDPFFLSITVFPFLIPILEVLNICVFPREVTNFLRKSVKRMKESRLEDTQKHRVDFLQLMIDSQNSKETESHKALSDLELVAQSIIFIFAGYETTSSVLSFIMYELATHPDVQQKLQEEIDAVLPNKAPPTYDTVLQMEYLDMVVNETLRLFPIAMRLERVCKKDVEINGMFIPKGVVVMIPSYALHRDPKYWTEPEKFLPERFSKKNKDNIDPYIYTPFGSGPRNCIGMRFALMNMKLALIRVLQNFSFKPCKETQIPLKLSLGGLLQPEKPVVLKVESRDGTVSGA

CYP3A4 [13] = biological target: T4, CYP3A4; test: Induction of CYP3A4 in human hepatocytes assessed as fold increase in mRNA level at 10 uM incubated for 24 hrs by RT-qPCR analysis relative to control; assay type: ADME, cell-based, Hepatocyte; details: read-out: FC
CYP3A4 [14] = biological target: T4, CYP3A4; test: Induction of CYP3A4 in human hepatocytes assessed as maximum activation in mRNA level at 10 uM incubated for 24 hrs by RT-qPCR analysis relative to control; assay type: ADME, cell-based, Hepatocyte; details: read-out: max activation
[15] = Unbound clearance in rat blood at 1 mg/kg, iv or 1 mg/kg,po; assay type: ADME, organism-based; details: in vivo
[16] = Half life in rat at 1 mg/kg, iv or 1 mg/kg,po; assay type: ADME, organism-based; details: in vivo
[17] = Volume of distribution at steady state in rat at 1 mg/kg, iv or 1 mg/kg,po; assay type: ADME, organism-based; details: in vivo, read-out: Vdss
[18] = Oral bioavailability in rat at 1 mg/kg; assay type: ADME, organism-based; details: in vivo

Structure (SMILES)	pIC50 [1]	pEC50 [2]	CL free [3]	solubility thermodynamic [4]	pEC50 [5]	inhibition at 0.25 h, 50 µM (CYP3A4 [12])	fold induction at 24 h, 10 µM (CYP3A4 [13])	Emax at 24 h, 10 µM (CYP3A4 [14])	further results
CO[C@@]1(c2cccc(-c3cn(C)c4cnc(NC(N)=O)cc34)n2)CCOC1	8.30	7.22	2.5 L/h/kg	16 µM (≈ 5.88 µg/mL)					
CCS(=O)(=O)c1cccc(-c2cn(C)c3cnc(NC(C)=O)cc23)n1	8.05	7.03	5.1 L/h/kg		4.75				
CC(=O)Nc1cc2c(-c3cccc(S(=O)(=O)N(C)C)c3)c[nH]c2cn1	7.52	6.92	6.8 L/h/kg	1.2 µM (≈ 0.43 µg/mL)	4.71				pIC50 [6]: 5.22; pIC50 [7]: 4.40; Ratio IC50 [8]: > 200; Ratio IC50 [9]: > 200; pEC50 [10]: < 4.72; pEC50 [11]: < 4.72
CO[C@@]1(c2cc(C#N)cc(-c3cn([C@@H]4CC4(F)F)c4cnc(NC(C)=O)cc34)n2)CCOC1			4.1 L/h/kg			20%	13	40%	
COc1cc(-c2cn(C3COC3)c3cnc(NC(C)=O)cc23)nc([C@]2(OC)CCOC2)c1			0.75 L/h/kg			43%	13	49%	
CC(=O)Nc1cc2c(-c3cccc(S(=O)(=O)N(C)C)c3)cn(C)c2cn1	8.00	7.70	8.4 L/h/kg	3.2 µM (≈ 1.19 µg/mL)	5.17				
CO[C@@]1(c2cc(OC(F)F)cc(-c3cn(C)c4cnc(NC(C)=O)cc34)n2)CCOC1			6.1 L/h/kg			53%	6	64%	
CO[C@@]1(c2cc(OCC[C@@H](C)O)cc(-c3cn(C)c4cnc(NC(C)=O)cc34)n2)CCOC1		7.11		105 µM (≈ 47.7 µg/mL)	< 4.70	8%	2.6	6%	pEC50 [10]: < 4.70; pEC50 [11]: < 4.70; CL free [15]: 34 L/h/kg; half-life [16]: 66 min; Vd [17]: 19 L/kg; bioavailability [18]: 26%
